Measurements published in PMC6156230, “Caspase-1 inhibition alleviates cognitive impairment and neuropathology in an Alzheimer’s disease mouse model” (Nature Communications, 2018).

Experiments:
Assay in all cases: fluorogenic AFC peptide substrate assay
Type in all cases: biochemical
[1] = target: T1, human Casp9 (Homo sapiens, UniProt P55211); details: 10 µM Ac-LEHD-AFC, pH 7.2, 37 °C, 10 mM DTT
T1 construct: recombinant caspase, commercial (BioVision)
T1 sequence (P55211 1-315): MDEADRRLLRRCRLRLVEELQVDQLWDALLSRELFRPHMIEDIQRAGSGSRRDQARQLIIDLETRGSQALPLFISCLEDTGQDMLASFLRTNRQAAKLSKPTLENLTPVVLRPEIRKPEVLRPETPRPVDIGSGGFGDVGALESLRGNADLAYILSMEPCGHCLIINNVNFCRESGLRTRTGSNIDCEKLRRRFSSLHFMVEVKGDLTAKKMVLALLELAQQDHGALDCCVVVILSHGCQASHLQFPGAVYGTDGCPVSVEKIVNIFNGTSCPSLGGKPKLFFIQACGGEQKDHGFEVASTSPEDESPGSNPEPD
T1 sequence (P55211 331-416): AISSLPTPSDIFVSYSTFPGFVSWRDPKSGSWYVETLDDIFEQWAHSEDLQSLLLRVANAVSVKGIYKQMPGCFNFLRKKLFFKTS

[2] = target: T2, human Casp10 (Homo sapiens, UniProt Q92851); details: 10 µM Ac-IETD-AFC, pH 7.2, 37 °C, 10 mM DTT
T2 construct: recombinant caspase, commercial (BioVision)
T2 sequence (Q92851 220-415): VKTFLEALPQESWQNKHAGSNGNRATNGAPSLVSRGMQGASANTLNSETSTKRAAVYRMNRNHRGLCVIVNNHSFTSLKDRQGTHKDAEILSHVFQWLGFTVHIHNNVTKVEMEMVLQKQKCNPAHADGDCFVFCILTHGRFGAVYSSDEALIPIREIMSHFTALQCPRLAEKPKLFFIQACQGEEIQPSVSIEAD
T2 sequence (Q92851 416-521): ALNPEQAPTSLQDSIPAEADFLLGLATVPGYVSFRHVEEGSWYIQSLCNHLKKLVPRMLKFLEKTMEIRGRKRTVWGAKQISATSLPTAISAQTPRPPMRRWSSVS

[3] = target: T3, human Casp8 (Homo sapiens, UniProt Q14790); details: 10 µM Ac-IETD-AFC, pH 7.2, 37 °C, 10 mM DTT
T3 construct: recombinant caspase, commercial (BioVision)

[4] = target: T4, human Casp5 (Homo sapiens, UniProt P51878); details: 10 µM Ac-WEHD-AFC, pH 7.2, 37 °C, 10 mM DTT
T4 construct: recombinant caspase, commercial (BioVision)
T4 sequence (P51878 137-327): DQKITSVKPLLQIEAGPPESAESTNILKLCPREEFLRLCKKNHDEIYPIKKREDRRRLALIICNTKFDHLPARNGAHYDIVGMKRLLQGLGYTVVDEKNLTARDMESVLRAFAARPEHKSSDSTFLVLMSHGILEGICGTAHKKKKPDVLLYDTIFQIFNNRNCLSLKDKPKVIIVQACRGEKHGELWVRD
T4 sequence (P51878 347-434): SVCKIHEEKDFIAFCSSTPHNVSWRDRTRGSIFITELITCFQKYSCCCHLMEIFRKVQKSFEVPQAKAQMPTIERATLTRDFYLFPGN

[5] = target: T5, human Casp1 (Homo sapiens, UniProt P29466)
T5 construct: recombinant caspase, commercial (BioVision)
T5 sequence (P29466 120-297): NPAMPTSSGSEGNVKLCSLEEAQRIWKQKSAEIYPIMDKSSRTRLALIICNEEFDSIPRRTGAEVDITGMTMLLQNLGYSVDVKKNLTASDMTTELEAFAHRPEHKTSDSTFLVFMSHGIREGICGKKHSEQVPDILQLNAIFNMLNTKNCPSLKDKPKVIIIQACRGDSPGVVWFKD
T5 sequence (P29466 317-404): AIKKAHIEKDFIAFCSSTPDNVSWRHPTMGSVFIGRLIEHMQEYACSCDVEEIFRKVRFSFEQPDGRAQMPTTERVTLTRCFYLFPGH

[6] = target: T6, mouse recombinant Casp1 (Mus musculus, UniProt P29452)
T6 construct: recombinant caspase, commercial
T6 sequence (P29452 119-296): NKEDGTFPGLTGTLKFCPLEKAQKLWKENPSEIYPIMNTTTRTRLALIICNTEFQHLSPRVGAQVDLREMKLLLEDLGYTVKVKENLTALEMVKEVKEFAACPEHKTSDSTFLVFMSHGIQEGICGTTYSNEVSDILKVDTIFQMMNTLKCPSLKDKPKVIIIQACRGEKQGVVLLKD
T6 sequence (P29452 315-402): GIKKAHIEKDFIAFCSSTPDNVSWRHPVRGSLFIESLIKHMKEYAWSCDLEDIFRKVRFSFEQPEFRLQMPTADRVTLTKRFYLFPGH

T3 sequence (Q14790 217-374): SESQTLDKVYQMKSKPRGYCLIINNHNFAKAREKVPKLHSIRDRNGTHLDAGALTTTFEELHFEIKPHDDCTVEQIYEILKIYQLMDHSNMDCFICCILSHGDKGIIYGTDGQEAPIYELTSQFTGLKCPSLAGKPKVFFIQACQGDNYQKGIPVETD
T3 sequence (Q14790 385-479): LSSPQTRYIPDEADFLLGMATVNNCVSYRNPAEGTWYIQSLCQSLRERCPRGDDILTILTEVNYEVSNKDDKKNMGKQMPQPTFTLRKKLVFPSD

IC50 [5] [nM]	IC50 [6] [nM]	SMILES	IC50 [1]	IC50 [2]	IC50 [3]	IC50 [4]
		CCO[C@@H]1OC(=O)C[C@@H]1NC(=O)[C@@H]1CCCN1C(=O)[C@@H](NC(=O)c1ccc(N)c(Cl)c1)C(C)(C)C [VX-765]	Casp5, Casp8, Casp9 and Casp10, which were inhibited in the nanomolar range in vitro	Casp5, Casp8, Casp9 and Casp10, which were inhibited in the nanomolar range in vitro	Casp5, Casp8, Casp9 and Casp10, which were inhibited in the nanomolar range in vitro	Casp5, Casp8, Casp9 and Casp10, which were inhibited in the nanomolar range in vitro
9.91	18	CC(C)(C)[C@H](NC(=O)c1ccc(N)c(Cl)c1)C(=O)N1CCC[C@H]1C(=O)N[C@H](C=O)CC(=O)O [VRT-043198]	Casp5, Casp8, Casp9 and Casp10, which were inhibited in the nanomolar range in vitro	Casp5, Casp8, Casp9 and Casp10, which were inhibited in the nanomolar range in vitro	Casp5, Casp8, Casp9 and Casp10, which were inhibited in the nanomolar range in vitro	Casp5, Casp8, Casp9 and Casp10, which were inhibited in the nanomolar range in vitro
